{"source": "ChEMBL document CHEMBL6134864", "about": "“Discovery of FLT3-ITD Inhibitor Clifutinib: A Novel Biphenylacetylene Urea Derivative in Clinical Trials for the Treatment of Relapsed/Refractory FLT3-ITD+ Acute Myeloid Leukemia” (J Med Chem, 2025)", "key": {"[1]": {"assay": "AUClast in rat plasma at 5 mg/kg, po measured up to 24 hrs by LC-MS/MS analysis", "assay_type": "ADME, organism-based"}, "[2]": {"assay": "Tmax in mouse plasma at 2 mg/kg, iv measured up to 24 hrs by LC-MS/MS analysis", "assay_type": "ADME, organism-based"}, "[3]": {"assay": "AUC last in mouse plasma at 10 mg/kg, po measured up to 24 hrs by LC-MS/MS analysis", "assay_type": "ADME, organism-based"}, "[4]": {"assay": "Oral bioavailability in mouse plasma at 10 mg/kg measured up to 24 hrs by LC-MS/MS analysis", "assay_type": "ADME, organism-based"}, "[5]": {"assay": "Cmax in dog plasma at 1 mg/kg, iv measured up to 24 hrs by LC-MS/MS analysis", "assay_type": "ADME, organism-based, Canis lupus familiaris"}, "[6]": {"assay": "AUC last in dog plasma at 1 mg/kg, iv measured up to 24 hrs by LC-MS/MS analysis", "assay_type": "ADME, organism-based, Canis lupus familiaris"}, "[7]": {"assay": "Clearance in dog plasma at 1 mg/kg, iv measured up to 24 hrs by LC-MS/MS analysis", "assay_type": "ADME, organism-based, Canis lupus familiaris"}, "[8]": {"assay": "Tmax in dog plasma at 5 mg/kg, po measured up to 24 hrs by LC-MS/MS analysis", "assay_type": "ADME, organism-based, Canis lupus familiaris"}, "[9]": {"assay": "AUC last in dog plasma at 5 mg/kg, po measured up to 24 hrs by LC-MS/MS analysis", "assay_type": "ADME, organism-based, Canis lupus familiaris"}, "[10]": {"assay": "Half life in dog plasma at 5 mg/kg, po measured up to 24 hrs by LC-MS/MS analysis", "assay_type": "ADME, organism-based, Canis lupus familiaris"}, "[11]": {"assay": "Tmax in monkey plasma at 1 mg/kg, iv measured up to 24 hrs by LC-MS/MS analysis", "assay_type": "ADME, organism-based, Macaca mulatta", "details": "rhesus monkey"}, "[12]": {"assay": "Tmax in monkey plasma at 5 mg/kg, po measured up to 24 hrs by LC-MS/MS analysis", "assay_type": "ADME, organism-based, Macaca mulatta", "details": "rhesus monkey"}, "[13]": {"assay": "AUC last in monkey plasma at 5 mg/kg, po measured up to 24 hrs by LC-MS/MS analysis", "assay_type": "ADME, organism-based, Macaca mulatta", "details": "rhesus monkey, in vivo"}, "[14]": {"assay": "Half life in monkey plasma at 5 mg/kg, po measured up to 24 hrs by LC-MS/MS analysis", "assay_type": "ADME, organism-based, Macaca mulatta", "details": "rhesus monkey"}, "[15]": {"biological_target": "hERG (KCNH2) (Homo sapiens, UniProt Q12809)", "sequence (Q12809 whole entry)": "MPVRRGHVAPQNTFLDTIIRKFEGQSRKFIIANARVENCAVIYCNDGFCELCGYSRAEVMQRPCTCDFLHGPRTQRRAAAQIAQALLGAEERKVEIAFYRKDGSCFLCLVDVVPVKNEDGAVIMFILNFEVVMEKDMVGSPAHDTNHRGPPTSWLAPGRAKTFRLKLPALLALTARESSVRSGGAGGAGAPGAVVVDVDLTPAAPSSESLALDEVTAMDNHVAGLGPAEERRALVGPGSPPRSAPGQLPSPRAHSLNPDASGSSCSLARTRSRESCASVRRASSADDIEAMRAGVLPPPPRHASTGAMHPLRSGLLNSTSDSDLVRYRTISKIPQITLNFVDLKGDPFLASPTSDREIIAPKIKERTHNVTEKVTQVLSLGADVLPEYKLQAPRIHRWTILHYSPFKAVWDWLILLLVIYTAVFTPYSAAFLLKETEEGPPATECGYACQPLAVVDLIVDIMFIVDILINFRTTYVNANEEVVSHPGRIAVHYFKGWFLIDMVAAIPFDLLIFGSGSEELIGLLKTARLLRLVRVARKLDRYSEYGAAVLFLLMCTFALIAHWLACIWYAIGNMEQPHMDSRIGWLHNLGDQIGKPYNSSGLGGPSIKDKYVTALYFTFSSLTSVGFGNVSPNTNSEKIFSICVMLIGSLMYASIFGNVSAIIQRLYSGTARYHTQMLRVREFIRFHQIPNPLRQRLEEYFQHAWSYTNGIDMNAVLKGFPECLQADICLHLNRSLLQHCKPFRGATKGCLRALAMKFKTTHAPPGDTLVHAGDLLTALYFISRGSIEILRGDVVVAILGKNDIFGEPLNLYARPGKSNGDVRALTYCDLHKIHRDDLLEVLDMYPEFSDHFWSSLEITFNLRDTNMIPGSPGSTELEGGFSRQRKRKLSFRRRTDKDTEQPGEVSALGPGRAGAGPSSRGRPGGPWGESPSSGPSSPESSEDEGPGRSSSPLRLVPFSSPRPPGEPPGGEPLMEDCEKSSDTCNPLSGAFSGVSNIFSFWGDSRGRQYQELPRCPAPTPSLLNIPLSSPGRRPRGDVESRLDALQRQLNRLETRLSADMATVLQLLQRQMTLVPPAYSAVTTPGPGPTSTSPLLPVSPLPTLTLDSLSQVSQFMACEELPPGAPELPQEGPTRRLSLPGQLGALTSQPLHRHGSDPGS", "assay": "Inhibition of human ERG expressed in CHO cells at 30 uM by manual patch clamp assay relative to control", "assay_type": "toxicity, cell-based", "details": "CHO cells expressing human ERG"}, "[16]": {"tested_on": "BaF3", "assay": "Antiproliferative activity against mouse BaF3 cells harbouring FLT3-ITD-Y842H mutant assessed as inhibition of cell growth incubated for 72 hrs by celltiter-glo luminescent cell viability assay", "assay_type": "functional, cell-based", "details": "BaF3, 72 h"}, "[17]": {"tested_on": "BaF3", "assay": "Antiproliferative activity against mouse BaF3 cells harbouring FLT3-ITD-Y842R mutant assessed as inhibition of cell growth incubated for 72 hrs by celltiter-glo luminescent cell viability assay", "assay_type": "functional, cell-based", "details": "BaF3, 72 h"}, "[18]": {"tested_on": "BaF3", "assay": "Antiproliferative activity against wild type mouse BaF3 cells assessed as inhibition of cell growth incubated for 72 hrs by celltiter-glo luminescent cell viability assay", "assay_type": "functional, cell-based", "details": "BaF3, 72 h"}, "[19]": {"tested_on": "MV4-11", "assay": "Induction of apoptosis in human MV4-11 cells harbouring FLT3-ITD mutant measured after 48 to 72 hrs by annexin V and PI staining based flow cytometry analysis", "assay_type": "functional, cell-based", "details": "dose 1-100 nM, time 48-72 hrs"}, "[20]": {"tested_on": "Receptor-type tyrosine-protein kinase FLT3 (Homo sapiens), P36888 [UNDEFINED MUTATION]", "sequence (P36888 whole entry, looked up, change not shown)": "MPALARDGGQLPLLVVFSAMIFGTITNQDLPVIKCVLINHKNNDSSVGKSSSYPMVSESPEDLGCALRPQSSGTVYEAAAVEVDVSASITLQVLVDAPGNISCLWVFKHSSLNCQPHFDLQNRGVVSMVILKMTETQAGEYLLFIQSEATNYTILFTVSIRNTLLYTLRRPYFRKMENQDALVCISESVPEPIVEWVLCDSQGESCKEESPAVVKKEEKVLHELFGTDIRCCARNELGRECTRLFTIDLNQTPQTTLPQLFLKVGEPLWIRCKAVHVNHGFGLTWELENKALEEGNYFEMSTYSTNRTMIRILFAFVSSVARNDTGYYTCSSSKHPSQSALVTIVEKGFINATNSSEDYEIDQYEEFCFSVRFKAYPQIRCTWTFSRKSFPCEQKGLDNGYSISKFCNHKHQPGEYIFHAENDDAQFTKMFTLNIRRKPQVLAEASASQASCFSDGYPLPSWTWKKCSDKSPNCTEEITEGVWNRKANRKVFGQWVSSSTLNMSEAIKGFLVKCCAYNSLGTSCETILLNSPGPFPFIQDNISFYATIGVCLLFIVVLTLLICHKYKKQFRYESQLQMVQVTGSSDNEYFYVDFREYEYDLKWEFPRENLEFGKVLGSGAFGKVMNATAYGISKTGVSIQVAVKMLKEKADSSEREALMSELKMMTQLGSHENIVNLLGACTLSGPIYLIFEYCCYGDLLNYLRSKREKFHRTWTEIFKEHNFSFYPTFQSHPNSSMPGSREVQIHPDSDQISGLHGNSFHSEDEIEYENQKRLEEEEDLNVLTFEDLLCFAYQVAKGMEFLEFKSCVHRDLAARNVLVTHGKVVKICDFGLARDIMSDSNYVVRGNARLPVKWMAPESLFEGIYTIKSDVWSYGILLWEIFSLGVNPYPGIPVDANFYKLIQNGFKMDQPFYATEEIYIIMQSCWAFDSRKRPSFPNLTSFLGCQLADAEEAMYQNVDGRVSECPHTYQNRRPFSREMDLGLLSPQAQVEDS", "assay": "Inhibition of FLT3 in human MV4-11 cells harbouring FLT3-ITD mutant assessed as inhibition of FLT3 phosphorylation level measured after 2 hrs by Western blot analysis", "assay_type": "cell-based", "details": "dose 1-1000 nM"}, "[21]": {"tested_on": "Receptor-type tyrosine-protein kinase FLT3 (Homo sapiens), P36888 [UNDEFINED MUTATION]", "assay": "Inhibition of FLT3 in human MV4-11 cells harbouring FLT3-ITD mutant assessed as inhibition of STAT5 phosphorylation level measured after 2 hrs by Western blot analysis", "assay_type": "cell-based", "details": "dose 1-1000 nM"}, "[22]": {"tested_on": "Receptor-type tyrosine-protein kinase FLT3 (Homo sapiens), P36888 [UNDEFINED MUTATION]", "assay": "Inhibition of FLT3 in human MV4-11 cells harbouring FLT3-ITD mutant assessed as effect on FLT3 protein level at 1 to 1000 nM measured after 2 hrs by Western blot analysis", "assay_type": "cell-based", "details": "dose 1-1000 nM"}, "[23]": {"biological_target": "Receptor-type tyrosine-protein kinase FLT3 (Homo sapiens) (UniProt P36888)", "sequence (P36888 whole entry)": "as the sequence (P36888 whole entry, looked up, change not shown) above", "assay": "Inhibition of FLT3 in human MV4-11 cells harbouring FLT3-ITD mutant assessed as effect on STAT5 protein level at 1 to 1000 nM measured after 2 hrs by Western blot analysis", "assay_type": "cell-based", "details": "dose 1-1000 nM"}, "[24]": {"biological_target": "Mast/stem cell growth factor receptor Kit (Homo sapiens, UniProt P10721)", "assay": "Inhibition of human KIT by biochemical kinase binding assay"}, "[25]": {"biological_target": "Platelet-derived growth factor receptor beta (Homo sapiens, UniProt P09619)", "sequence (P09619 whole entry)": "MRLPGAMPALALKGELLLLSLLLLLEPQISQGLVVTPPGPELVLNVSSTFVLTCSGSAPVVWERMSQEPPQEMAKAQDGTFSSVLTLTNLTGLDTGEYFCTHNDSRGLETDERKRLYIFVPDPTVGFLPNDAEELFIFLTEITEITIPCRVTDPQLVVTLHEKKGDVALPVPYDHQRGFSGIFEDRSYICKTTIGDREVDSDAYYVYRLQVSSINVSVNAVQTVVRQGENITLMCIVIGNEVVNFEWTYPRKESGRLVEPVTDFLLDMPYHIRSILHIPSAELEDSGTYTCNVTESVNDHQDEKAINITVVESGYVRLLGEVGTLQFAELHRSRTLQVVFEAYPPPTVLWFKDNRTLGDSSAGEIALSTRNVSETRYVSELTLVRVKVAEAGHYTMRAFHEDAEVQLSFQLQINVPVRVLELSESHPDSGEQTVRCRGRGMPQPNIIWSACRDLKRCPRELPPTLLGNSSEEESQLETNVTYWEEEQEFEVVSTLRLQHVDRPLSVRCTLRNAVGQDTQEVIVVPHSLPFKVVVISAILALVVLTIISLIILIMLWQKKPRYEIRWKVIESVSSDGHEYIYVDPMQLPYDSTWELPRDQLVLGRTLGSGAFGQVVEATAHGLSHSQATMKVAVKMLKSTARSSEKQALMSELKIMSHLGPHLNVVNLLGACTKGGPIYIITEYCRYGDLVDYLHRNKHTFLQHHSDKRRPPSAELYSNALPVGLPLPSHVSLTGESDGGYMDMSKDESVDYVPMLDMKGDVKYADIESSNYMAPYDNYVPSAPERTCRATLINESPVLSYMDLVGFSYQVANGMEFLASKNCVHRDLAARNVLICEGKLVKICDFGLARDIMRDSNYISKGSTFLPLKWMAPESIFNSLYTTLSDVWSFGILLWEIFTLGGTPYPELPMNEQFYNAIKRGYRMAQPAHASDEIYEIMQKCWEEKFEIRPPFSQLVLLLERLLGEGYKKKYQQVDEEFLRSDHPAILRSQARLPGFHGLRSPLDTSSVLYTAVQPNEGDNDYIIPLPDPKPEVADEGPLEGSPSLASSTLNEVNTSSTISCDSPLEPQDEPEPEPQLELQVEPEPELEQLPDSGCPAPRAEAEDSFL", "assay": "Inhibition of human PDGFR beta by biochemical kinase binding assay"}, "[26]": {"biological_target": "Proto-oncogene tyrosine-protein kinase receptor Ret (Homo sapiens, UniProt P07949, Y791F)", "sequence (P07949 29-1114 Y791F limits assumed)": "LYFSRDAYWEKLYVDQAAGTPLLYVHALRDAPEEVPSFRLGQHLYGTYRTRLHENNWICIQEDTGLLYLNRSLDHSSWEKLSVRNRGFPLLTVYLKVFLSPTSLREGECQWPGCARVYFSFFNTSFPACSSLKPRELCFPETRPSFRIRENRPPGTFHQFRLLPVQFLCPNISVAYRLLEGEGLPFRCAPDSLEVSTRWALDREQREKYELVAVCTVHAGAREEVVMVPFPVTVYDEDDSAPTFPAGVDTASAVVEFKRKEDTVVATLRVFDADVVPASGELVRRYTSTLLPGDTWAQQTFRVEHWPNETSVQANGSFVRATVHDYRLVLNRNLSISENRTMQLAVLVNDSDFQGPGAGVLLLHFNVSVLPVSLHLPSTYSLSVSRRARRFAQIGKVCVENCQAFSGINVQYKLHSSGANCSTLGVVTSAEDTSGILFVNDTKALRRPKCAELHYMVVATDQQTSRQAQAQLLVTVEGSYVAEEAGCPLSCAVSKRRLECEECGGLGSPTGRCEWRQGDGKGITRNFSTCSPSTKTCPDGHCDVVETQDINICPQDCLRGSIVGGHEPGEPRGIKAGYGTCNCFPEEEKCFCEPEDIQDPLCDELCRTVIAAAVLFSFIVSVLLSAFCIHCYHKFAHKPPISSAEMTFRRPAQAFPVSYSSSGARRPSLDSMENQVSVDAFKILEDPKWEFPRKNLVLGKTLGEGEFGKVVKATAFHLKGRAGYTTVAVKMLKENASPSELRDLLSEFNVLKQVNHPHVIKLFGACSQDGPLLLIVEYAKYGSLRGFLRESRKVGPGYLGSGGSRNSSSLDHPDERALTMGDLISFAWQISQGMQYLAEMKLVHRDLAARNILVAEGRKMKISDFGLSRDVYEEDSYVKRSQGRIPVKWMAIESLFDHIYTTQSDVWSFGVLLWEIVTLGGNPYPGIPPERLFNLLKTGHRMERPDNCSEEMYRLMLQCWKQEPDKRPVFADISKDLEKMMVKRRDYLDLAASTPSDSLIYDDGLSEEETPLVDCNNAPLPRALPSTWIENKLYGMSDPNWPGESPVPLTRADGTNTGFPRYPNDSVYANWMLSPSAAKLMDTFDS", "assay": "Inhibition of human RET Y791F mutant by biochemical kinase binding assay"}, "[27]": {"biological_target": "Mast/stem cell growth factor receptor Kit (Homo sapiens, UniProt P10721, Y823D)", "assay": "Inhibition of human KIT Y823D mutant by biochemical kinase binding assay"}, "[28]": {"biological_target": "Cytochrome P450 1A2 (Homo sapiens, UniProt P05177)", "sequence (P05177 whole entry)": "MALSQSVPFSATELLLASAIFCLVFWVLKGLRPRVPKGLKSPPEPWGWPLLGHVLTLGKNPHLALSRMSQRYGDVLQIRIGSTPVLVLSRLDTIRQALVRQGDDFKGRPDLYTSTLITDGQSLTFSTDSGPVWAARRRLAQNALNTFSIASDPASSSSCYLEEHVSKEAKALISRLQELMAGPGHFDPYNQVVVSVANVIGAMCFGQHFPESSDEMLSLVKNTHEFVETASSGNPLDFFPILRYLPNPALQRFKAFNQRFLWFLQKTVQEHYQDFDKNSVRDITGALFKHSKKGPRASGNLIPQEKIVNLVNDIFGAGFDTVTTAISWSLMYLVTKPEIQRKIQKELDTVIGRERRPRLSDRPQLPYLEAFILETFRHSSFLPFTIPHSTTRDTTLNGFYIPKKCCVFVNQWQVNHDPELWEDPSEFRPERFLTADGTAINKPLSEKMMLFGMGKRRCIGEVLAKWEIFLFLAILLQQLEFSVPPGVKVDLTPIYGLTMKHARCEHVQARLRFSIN", "assay": "Inhibition of CYP1A2 in human liver microsomes by UPLC-MS/MS analysis", "assay_type": "ADME, Microsome"}, "[29]": {"assay": "Antitumor activity against human […] cells harbouring FLT3-ITD xenografted in NOD/SCID mouse model assessed as tumor regression rate at 20 mg/kg/day, po measured for 8 days by caliper analysis relative to control", "assay_type": "functional, MV4-11", "details": "time 8 day"}, "[30]": {"tested_on": "MOLM-13", "assay": "Antitumor activity against human MOLM-13 cells xenografted in NOD/SCID mouse model assessed as tumor growth inhibition at […], po in presence of Ara-C by caliper analysis relative to control", "assay_type": "functional", "details": "dose 1.5 mg/kg/day, read-out: TGI"}, "[31]": {"assay": "Half life in NOD/SCID mouse plasma xenografted with human MV4-11 cells at […], po measured up to 24 hrs by LC-MS/MS analysis", "assay_type": "ADME, organism-based", "details": "dose 1.5 mg/kg"}, "[32]": {"assay": "Cmax in NOD/SCID mouse plasma xenografted with human MV4-11 cells at 0.5 mg/kg, po measured up to 24 hrs by LC-MS/MS analysis", "assay_type": "ADME, organism-based"}, "[33]": {"assay": "Cmax in NOD/SCID mouse plasma xenografted with human MV4-11 cells at […], po measured up to 24 hrs by LC-MS/MS analysis", "assay_type": "ADME, organism-based", "details": "dose 1.5 mg/kg"}, "[34]": {"assay": "Cmax in NOD/SCID mouse plasma xenografted with human MV4-11 cells at 4.5 mg/kg, po measured up to 24 hrs by LC-MS/MS analysis", "assay_type": "ADME, organism-based"}, "[35]": {"assay": "Cmax in NOD/SCID mouse tumor xenografted with human MV4-11 cells at […], po measured up to 24 hrs by LC-MS/MS analysis", "assay_type": "ADME, organism-based, Neoplasm", "details": "dose 1.5 mg/kg"}, "[36]": {"assay": "AUC (0 to t) in NOD/SCID mouse plasma xenografted with human MV4-11 cells at […], po measured up to 24 hrs by LC-MS/MS analysis", "assay_type": "ADME, organism-based", "details": "dose 1.5 mg/kg"}, "[37]": {"tested_on": "RS4-11", "assay": "cells", "details": "Homo sapiens, RS4-11, 72 h", "description": "Antiproliferative activity against human RS4;11 cells assessed as inhibition of cell growth incubated for 72 hrs by celltiter-glo luminescent cell viability assay"}, "[38]": {"tested_on": "NCI-H226", "assay": "cells", "details": "Homo sapiens, NCI-H226, 72 h", "description": "Antiproliferative activity against human NCI-H226 cells assessed as inhibition of cell growth incubated for 72 hrs by celltiter-glo luminescent cell viability assay"}, "[39]": {"tested_on": "HCT-116", "assay": "cells", "details": "Homo sapiens, HCT-116, 72 h", "description": "Antiproliferative activity against human HCT-116 cells assessed as inhibition of cell growth incubated for 72 hrs by celltiter-glo luminescent cell viability assay"}}, "note": "Active and inactive are the calls of the source. The rule behind the calls is not given here."}
{"smiles": "CC(C)(C)c1cc(NC(=O)Nc2ccc(C#Cc3ccc(OCCCN4CCOCC4)cc3)cc2)no1", "values": [{"measurement": "AUC(0-t) at 24 h", "setting": "[1]", "result": 8310, "unit": "ng·h/mL"}, {"measurement": "Tmax", "setting": "[2]", "result": 4.98, "unit": "min"}, {"measurement": "AUC(0-t) at 24 h", "setting": "[3]", "result": 4380, "unit": "ng·h/mL"}, {"measurement": "bioavailability", "setting": "[4]", "result": 50.3, "unit": "%"}, {"measurement": "Cmax", "setting": "[5]", "result": 633, "unit": "ng/mL"}, {"measurement": "AUC(0-t) at 24 h", "setting": "[6]", "result": 1290, "unit": "ng·h/mL"}, {"measurement": "clearance", "setting": "[7]", "result": 11.3, "unit": "mL/min/kg"}, {"measurement": "Tmax", "setting": "[8]", "result": 1.67, "unit": "h"}, {"measurement": "AUC(0-t) at 24 h", "setting": "[9]", "result": 4870, "unit": "ng·h/mL"}, {"measurement": "half-life", "setting": "[10]", "result": 7.41, "unit": "h"}, {"measurement": "Tmax", "setting": "[11]", "result": 4.98, "unit": "min"}, {"measurement": "Tmax", "setting": "[12]", "result": 4, "unit": "h"}, {"measurement": "AUClast", "setting": "[13]", "result": 10800, "unit": "ng·h/mL"}, {"measurement": "half-life", "setting": "[14]", "result": 8.94, "unit": "h"}, {"measurement": "inhibition at 30 µM", "setting": "[15]", "result": 22.8, "unit": "%"}, {"measurement": "IC50", "setting": "[16]", "result": 38, "unit": "nM"}, {"measurement": "IC50", "setting": "[17]", "result": 21.8, "unit": "nM"}, {"measurement": "IC50", "setting": "[18]", "result": "> 1000", "unit": "nM"}, {"measurement": "Activity", "setting": "[19]", "result": "Dose-dependent-effect"}, {"measurement": "inhibition", "setting": "[20]", "result": "Dose-dependent-effect"}, {"measurement": "inhibition", "setting": "[21]", "result": "Dose-dependent-effect"}, {"measurement": "inhibition", "setting": "[22]", "result": "inactive"}, {"measurement": "inhibition", "setting": "[23]", "result": "inactive"}, {"measurement": "IC50", "setting": "[24]", "result": 1790, "unit": "nM"}, {"measurement": "IC50", "setting": "[25]", "result": 1630, "unit": "nM"}, {"measurement": "IC50", "setting": "[26]", "result": 119, "unit": "nM"}, {"measurement": "IC50", "setting": "[27]", "result": 283, "unit": "nM"}, {"measurement": "IC50", "setting": "[28]", "result": "> 33300", "unit": "nM"}, {"measurement": "Activity", "setting": "[29]", "result": 85.4, "unit": "%"}, {"measurement": "inhibition in vivo at […]", "setting": "[30]", "result": 80, "unit": "%"}, {"measurement": "half-life at 24 h", "setting": "[31]", "result": 3.34, "unit": "h"}, {"measurement": "Cmax", "setting": "[32]", "result": 20.5, "unit": "ng/mL"}, {"measurement": "Cmax at 24 h", "setting": "[33]", "result": 52.8, "unit": "ng/mL"}, {"measurement": "Cmax", "setting": "[34]", "result": 199, "unit": "ng/mL"}, {"measurement": "Cmax at 24 h", "setting": "[35]", "result": 91.9, "unit": "ng/mL"}, {"measurement": "AUC(0-t) at 24 h", "setting": "[36]", "result": 208, "unit": "ng·h/mL"}, {"measurement": "IC50", "setting": "[37]", "result": "> 10000", "unit": "nM"}, {"measurement": "IC50", "setting": "[38]", "result": "> 10000", "unit": "nM"}, {"measurement": "IC50", "setting": "[39]", "result": 8500, "unit": "nM"}]}
